Test results as given in BindingDB's records for PubMed 1501121 (Sanofi Recherche, 1992).

What was measured:
[1] = target: Histamine H1 receptor (Rattus norvegicus, UniProt P31390)
[2] = target: T1, Alpha-2C adrenergic receptor (Rattus norvegicus, UniProt P22086)
T1 sequence (P22086 whole entry): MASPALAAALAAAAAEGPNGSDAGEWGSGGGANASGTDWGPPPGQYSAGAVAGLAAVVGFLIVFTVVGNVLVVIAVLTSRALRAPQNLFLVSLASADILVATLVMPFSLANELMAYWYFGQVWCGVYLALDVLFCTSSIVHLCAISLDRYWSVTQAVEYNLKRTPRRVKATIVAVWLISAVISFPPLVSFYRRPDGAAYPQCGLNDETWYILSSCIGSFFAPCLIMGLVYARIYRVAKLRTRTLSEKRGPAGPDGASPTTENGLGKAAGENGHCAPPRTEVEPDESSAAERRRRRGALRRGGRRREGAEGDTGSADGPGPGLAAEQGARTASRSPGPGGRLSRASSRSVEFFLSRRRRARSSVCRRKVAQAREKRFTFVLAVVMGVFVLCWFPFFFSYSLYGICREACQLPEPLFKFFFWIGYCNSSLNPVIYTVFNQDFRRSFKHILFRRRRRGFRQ

[3] = target: T2, 5-hydroxytryptamine receptor 2C (Sus scrofa, UniProt G7ZKZ7)
T2 sequence (G7ZKZ7 whole entry): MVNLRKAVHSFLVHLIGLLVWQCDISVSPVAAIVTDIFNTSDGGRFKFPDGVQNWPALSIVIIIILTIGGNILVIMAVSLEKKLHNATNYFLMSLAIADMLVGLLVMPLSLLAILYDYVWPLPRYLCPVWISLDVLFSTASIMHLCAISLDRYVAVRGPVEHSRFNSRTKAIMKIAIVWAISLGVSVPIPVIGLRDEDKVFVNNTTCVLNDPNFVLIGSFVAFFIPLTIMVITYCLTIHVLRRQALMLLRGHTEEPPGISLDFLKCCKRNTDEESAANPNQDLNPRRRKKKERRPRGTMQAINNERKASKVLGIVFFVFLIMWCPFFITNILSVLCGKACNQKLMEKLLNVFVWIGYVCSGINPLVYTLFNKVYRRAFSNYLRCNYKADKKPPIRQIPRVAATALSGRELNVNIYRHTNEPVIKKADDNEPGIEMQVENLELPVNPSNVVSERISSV

[4] = target: 5-hydroxytryptamine 1D receptor (Bos taurus, UniProt Q8MI13)
[5] = target: T3, Alpha-1A adrenergic receptor (Rattus norvegicus, UniProt P43140)
T3 sequence (P43140 whole entry): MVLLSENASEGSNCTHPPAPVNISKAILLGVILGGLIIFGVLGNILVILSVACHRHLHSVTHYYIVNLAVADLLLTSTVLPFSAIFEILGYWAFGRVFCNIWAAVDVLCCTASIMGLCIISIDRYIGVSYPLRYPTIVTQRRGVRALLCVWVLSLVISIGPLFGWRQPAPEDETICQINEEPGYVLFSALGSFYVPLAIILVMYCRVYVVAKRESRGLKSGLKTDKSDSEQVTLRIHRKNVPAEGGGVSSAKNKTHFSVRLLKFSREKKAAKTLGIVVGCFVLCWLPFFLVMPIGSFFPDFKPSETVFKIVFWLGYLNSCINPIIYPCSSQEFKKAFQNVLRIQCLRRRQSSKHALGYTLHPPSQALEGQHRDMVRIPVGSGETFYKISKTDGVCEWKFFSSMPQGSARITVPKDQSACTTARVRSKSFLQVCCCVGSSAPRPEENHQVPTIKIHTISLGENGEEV

[6] = target: Sodium channel protein type 10 subunit alpha (Rattus norvegicus, UniProt Q62968)
[7] = target: D(1A) dopamine receptor (Rattus norvegicus, UniProt P18901)
[8] = target: 5-hydroxytryptamine receptor 1B (Rattus norvegicus, UniProt P28564)
[9] = target: 5-hydroxytryptamine receptor 2A (Rattus norvegicus, UniProt P14842)
[10] = target: D(2) dopamine receptor (Rattus norvegicus, UniProt P61169)
Sequence of D(2) dopamine receptor (P61169 whole entry): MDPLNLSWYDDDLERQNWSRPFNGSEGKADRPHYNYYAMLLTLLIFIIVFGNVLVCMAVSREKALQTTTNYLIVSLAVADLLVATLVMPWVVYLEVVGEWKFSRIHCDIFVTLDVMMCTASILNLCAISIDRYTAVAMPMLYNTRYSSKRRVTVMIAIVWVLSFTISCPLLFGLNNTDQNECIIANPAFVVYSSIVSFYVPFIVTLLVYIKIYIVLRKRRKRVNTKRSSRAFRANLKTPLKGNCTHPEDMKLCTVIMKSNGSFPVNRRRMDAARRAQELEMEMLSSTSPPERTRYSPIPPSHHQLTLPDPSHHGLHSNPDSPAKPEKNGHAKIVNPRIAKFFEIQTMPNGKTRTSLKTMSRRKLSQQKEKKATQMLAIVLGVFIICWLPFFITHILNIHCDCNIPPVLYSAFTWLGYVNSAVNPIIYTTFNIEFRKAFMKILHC

Sequence of D(1A) dopamine receptor (P18901 whole entry): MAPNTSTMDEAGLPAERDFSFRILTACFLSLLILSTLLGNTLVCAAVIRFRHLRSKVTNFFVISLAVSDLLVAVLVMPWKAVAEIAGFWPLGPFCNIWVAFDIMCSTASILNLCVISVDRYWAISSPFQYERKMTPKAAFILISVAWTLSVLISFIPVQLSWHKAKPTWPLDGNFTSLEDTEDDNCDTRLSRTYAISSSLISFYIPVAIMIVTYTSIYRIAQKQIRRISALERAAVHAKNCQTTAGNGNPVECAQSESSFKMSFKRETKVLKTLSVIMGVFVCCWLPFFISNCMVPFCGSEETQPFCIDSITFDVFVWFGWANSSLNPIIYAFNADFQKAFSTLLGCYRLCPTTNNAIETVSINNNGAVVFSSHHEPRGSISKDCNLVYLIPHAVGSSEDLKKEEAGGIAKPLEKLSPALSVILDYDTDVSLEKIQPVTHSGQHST
Sequence of Sodium channel protein type 10 subunit alpha (Q62968 whole entry): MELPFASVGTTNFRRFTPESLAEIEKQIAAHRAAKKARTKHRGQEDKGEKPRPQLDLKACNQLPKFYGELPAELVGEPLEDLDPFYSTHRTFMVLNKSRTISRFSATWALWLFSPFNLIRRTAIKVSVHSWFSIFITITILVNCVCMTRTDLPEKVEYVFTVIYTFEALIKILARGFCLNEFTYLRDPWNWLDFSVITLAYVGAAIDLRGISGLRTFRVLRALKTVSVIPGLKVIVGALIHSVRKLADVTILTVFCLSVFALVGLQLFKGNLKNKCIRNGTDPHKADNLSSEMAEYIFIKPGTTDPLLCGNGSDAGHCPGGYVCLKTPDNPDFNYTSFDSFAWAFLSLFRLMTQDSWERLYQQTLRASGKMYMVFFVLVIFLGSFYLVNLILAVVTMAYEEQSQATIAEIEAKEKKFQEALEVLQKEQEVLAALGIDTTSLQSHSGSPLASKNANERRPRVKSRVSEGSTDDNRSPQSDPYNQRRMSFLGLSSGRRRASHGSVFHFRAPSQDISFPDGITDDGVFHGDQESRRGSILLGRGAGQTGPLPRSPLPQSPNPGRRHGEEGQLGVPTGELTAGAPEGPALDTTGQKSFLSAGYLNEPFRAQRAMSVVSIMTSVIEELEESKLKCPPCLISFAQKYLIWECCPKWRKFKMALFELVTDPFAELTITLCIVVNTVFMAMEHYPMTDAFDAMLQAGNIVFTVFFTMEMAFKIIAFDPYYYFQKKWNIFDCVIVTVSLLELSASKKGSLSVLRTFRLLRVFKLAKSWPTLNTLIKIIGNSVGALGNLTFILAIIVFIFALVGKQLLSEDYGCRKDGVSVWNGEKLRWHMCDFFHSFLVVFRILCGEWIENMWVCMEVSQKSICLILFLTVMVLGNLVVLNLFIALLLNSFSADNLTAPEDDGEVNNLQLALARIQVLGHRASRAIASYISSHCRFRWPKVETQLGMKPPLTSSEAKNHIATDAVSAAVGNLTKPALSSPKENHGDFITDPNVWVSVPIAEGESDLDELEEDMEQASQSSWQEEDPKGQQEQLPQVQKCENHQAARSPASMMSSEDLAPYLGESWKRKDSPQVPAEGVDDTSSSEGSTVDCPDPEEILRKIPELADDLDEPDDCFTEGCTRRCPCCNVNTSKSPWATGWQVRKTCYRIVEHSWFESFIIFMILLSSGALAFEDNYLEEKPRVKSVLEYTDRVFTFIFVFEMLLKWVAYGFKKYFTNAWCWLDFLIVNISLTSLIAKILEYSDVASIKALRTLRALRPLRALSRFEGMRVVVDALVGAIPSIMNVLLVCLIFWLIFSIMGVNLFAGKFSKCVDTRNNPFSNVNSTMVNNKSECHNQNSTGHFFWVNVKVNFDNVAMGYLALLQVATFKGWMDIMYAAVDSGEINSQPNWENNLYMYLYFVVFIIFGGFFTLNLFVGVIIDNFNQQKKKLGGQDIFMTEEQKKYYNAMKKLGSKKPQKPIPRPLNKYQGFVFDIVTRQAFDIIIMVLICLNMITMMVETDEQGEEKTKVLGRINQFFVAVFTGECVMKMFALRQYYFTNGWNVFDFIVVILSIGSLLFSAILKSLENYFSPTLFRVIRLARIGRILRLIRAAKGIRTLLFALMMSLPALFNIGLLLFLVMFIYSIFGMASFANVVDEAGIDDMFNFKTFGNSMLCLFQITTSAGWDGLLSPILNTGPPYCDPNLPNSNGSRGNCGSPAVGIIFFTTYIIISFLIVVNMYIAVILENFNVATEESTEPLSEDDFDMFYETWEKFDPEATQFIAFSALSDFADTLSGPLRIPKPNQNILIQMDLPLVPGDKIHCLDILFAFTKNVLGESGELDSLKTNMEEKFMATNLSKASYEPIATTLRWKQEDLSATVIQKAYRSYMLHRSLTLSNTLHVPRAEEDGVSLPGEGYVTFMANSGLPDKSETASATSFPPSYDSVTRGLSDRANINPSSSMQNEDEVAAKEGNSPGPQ
Sequence of 5-hydroxytryptamine receptor 1B (P28564 whole entry): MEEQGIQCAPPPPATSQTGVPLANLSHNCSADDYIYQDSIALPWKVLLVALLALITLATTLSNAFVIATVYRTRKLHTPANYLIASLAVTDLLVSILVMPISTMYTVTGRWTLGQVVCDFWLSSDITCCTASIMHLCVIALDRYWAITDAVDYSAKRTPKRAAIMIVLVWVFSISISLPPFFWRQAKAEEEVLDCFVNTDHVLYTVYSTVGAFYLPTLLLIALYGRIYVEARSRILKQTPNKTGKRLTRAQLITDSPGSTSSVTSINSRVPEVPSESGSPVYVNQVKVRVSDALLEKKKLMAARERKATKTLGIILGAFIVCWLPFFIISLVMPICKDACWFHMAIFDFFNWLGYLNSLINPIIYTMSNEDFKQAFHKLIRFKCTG
Sequence of Histamine H1 receptor (P31390 whole entry): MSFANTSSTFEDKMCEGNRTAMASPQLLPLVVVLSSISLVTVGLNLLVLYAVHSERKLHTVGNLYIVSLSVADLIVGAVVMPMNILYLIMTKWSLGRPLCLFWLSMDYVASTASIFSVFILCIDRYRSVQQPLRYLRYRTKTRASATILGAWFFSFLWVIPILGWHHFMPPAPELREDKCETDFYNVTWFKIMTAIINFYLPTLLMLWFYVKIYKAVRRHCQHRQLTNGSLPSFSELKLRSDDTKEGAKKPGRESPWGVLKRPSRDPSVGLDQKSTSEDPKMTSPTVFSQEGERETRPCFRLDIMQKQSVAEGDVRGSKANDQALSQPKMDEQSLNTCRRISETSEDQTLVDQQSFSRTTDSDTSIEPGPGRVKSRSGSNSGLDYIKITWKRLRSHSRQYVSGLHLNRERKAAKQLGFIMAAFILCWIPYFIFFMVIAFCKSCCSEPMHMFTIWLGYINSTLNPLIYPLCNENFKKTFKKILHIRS
Sequence of 5-hydroxytryptamine 1D receptor (Q8MI13 whole entry): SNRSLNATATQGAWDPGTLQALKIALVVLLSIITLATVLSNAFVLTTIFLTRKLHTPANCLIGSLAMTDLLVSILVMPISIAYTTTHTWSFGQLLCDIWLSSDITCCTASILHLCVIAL
Sequence of 5-hydroxytryptamine receptor 2A (P14842 whole entry): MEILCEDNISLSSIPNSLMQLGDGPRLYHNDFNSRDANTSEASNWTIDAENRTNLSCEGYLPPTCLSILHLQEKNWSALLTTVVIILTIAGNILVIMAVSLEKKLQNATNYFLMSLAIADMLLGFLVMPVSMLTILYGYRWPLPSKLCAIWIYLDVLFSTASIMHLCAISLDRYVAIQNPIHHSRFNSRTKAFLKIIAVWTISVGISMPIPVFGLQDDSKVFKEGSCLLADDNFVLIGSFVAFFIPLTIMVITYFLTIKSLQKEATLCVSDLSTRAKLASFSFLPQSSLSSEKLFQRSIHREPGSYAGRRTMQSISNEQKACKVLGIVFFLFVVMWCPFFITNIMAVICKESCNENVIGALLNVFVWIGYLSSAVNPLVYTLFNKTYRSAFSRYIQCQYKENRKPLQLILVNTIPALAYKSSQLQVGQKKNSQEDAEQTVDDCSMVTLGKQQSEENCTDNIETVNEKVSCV

Ki [1]: 5 µM | Ki [2]: 1 µM | Ki [3]: 0.12 µM | Ki [4]: > 10 µM | Ki [5]: 3.4 µM | Ki [6]: > 10 µM | Ki [7]: 9 µM | Ki [8]: > 10 µM | Ki [9]: 0.0058 µM | Ki [10]: > 10 µM
Structure (SMILES): CN(C)CCON=C(C=Cc1ccc(O)cc1)c1ccccc1F [NSC_6438382]
